Here are results for 61 compounds from patent publication US20220235065A1 (Epizyme, Inc., priority 2016, published 2022).

This test addresses T1, recombinant purified human EHMT2 913-1193 (Homo sapiens, UniProt Q96KQ7).
T1 construct: Recombinant purified human EHMT2 913-1193 (55 μM) synthesized by Viva was used for all experiments; purchased Viva
T1 sequence (Q96KQ7 913-1193): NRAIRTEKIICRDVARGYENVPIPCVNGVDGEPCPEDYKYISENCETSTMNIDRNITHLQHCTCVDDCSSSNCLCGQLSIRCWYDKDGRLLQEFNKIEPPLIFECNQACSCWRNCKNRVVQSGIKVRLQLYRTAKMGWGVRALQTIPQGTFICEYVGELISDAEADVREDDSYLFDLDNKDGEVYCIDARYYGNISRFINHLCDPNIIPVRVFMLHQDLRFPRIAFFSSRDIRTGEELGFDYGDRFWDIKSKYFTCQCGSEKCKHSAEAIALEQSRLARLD
Description: EHMT2 enzyme assay on histone peptide substrate (3H-SAM Flashplate). In kind it is biochemical. To be noted: read-out: EHMT2 PEP (IC50 μM). A digest of the protocol:
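Compounds (10-point 3-fold series, top 50 μM final, 2% DMSO) preincubated 30 min with 0.031 nM EHMT2 in 20 mM Bicine pH 7.5, 1 mM TCEP; reaction started with 3H-SAM and biotinylated H3 1-15 peptide, both at Km, run 60 min at room temperature. Flashplate capture; IC50 from four-parameter fit, triplicates.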

Where a name gives a salt, the structure may show the parent alone.

In general, IC50 refers to the concentration needed to halve the response being measured.

Turning to `CNc1cc(C)nc(Nc2ccc(OC)c(-n3cc4c(n3)CCN(C)C4)c2)n1` [Compound 2], the IC50 is < 0.1 µM. `CNc1cc(C)nc(Nc2ccc(OC)c(-n3cc4c(n3)CN(C)CC4)c2)n1` [Compound 3]: the IC50 was 1 to 10 µM. The value for `CNc1cc(C)nc(Nc2ccc(OC)c(-n3ccc(CN4CCCC4)n3)c2)n1` [Compound 4, trifluoroacetic acid] was 1 to 10 µM; that for `CNc1cc(C)nc(Nc2ccc(OC)c(-n3cc(CN4CCCC4)cn3)c2)n1` [Compound 5, 2-N-[4-methoxy-3-[4-(pyrrolidin-1-ylmethyl)-1H-pyrazol-1-yl]phenyl]-4-N,6-dimethylpyrimidine-2,4-diamine] was 1 to 10 µM. Regarding `CNc1cc(C)nc(Nc2ccc(OC)c(-n3cc4ccncc4n3)c2)n1` [Compound 41], the half-inhibitory concentration (IC50) was > 10 µM. The value for `CNc1cc(C)nc(Nc2ccc(OC)c(-c3ccc4cc[nH]c4n3)c2)n1` [Compound 42] was > 10 µM; that for `CNc1cc(C)nc(Nc2ccc(OC)c(-n3cc4c(n3)CCOC4)c2)n1` [Compound 43] was > 10 µM. Turning to `CNc1cc(C)nc(Nc2ccc(OC)c(-c3nc4cnccc4[nH]3)c2)n1` [Compound 47], the 50% inhibitory concentration (IC50) lay in the range of 1 to 10 µM. To `CNc1cc(C)nc(Nc2ccc(OC)c(-c3cc4cnccc4[nH]3)c2)n1` [Compound 48] belongs 0.1 to 1 µM; to `CCn1cc(NC(=O)c2cc(Nc3nc(C)cc(NC)n3)ccc2OC)cn1` [Compound 49], > 10 µM; to `CNc1cc(C)nc(Nc2cnc(OC)c(-n3cc4c(n3)CCNC4)c2)n1` [Compound 50], 0.1 to 1 µM.

For `CNc1cc(C)nc(Nc2ccc(OC)c(-n3cc4c(n3)CCCN4)c2)n1` [Compound 56, N2-(4-methoxy-3-(4,5,6,7-tetrahydro-2H-pyrazolo[4,3-b]pyridin-2-yl)phenyl)-N4,6-dimethylpyrimidine-2,4-diamine hydrochloride], the IC50 was > 10 µM. Take `CNc1cc(C)nc(Nc2cnc(OC)c(-n3cc4c(n3)CCN(C)C4)c2)n1` [Compound 57]: the concentration for half-maximal inhibition (IC50) was in the range of 1 to 10 µM.

Regarding `CNc1cc(C)nc(Nc2cnc(OC)c(-c3nc4cnccn4n3)c2)n1` [Compound 60], the IC50 was > 10 µM. For `CNc1cc(C)nc(Nc2ccc(OC)c(-n3cnc(CN(C)C)n3)c2)n1` [Compound 61], the IC50 is > 10 µM. The value for `CNc1cc(C)nc(Nc2cnc(OC)c(-n3cnc(CN(C)C)n3)c2)n1` [Compound 62] was > 10 µM.

In the case of `CNc1cc(C)nc(Nc2cc(-n3cc4c(n3)CCN(C)C4)c(OC)cn2)n1` [Compound 65], the IC50 is > 10 µM. The value for `CNc1cc(C)nc(Nc2ccc(OC)c(-n3cc(CN(C)C)nn3)c2)n1` [Compound 66] was 0.1 to 1 µM; that for `CNc1cc(C)nc(Nc2ccc(OC)c(-n3cnc(CN4CCC4)n3)c2)n1` [Compound 67] was > 10 µM; that for `CNc1cc(C)nc(Nc2ccc(OC)c(-n3cnc(CN4CC(F)C4)n3)c2)n1` [Compound 68] was > 10 µM.

With `CNc1cc(C)nc(Nc2ccc(OC)c(-n3cc4c(n3)CCN(C3COC3)C4)c2)n1` [Compound 69], the 50% inhibitory concentration (IC50) was > 10 µM. With `CCN1CCc2nn(-c3cc(Nc4nc(C)cc(NC)n4)ccc3OC)cc2C1` [Compound 70], the 50% inhibitory concentration (IC50) fell in the range of 0.1 to 1 µM.

As to `CNc1cc(C)nc(Nc2ccc(OC)c(-c3nnc(CN(C)C)[nH]3)c2)n1` [Compound 73], the 50% inhibitory concentration (IC50) was > 10 µM. With `CNc1cc(C)nc(Nc2cnc(OC)c(-n3cc(CN(C)C)cn3)c2)n1` [Compound 74], the 50% inhibitory concentration (IC50) fell in the range of 0.1 to 1 µM. `CNc1cc(C)nc(Nc2ccc(OC)c(-n3ncc4c3CN(C(C)=O)CC4)c2)n1` [Compound 75]: the IC50 was > 10 µM. With `CNc1cc(C)nc(Nc2ccc(OC)c(-n3nccc3CNC(C)=O)c2)n1` [Compound 76], the IC50 is > 10 µM. With `CNc1cc(C)nc(Nc2ccc(OC)c(-c3nnc4n3CCN(C(=O)OC(C)(C)C)C4)c2)n1` [Compound 77], the IC50 was > 10 µM. The value for `CNc1cc(C)nc(Nc2ccc(OC)c(-c3nc4c([nH]3)CNCC4)c2)n1` [Compound 78] was 1 to 10 µM; that for `CNc1cc(C)nc(Nc2ccc(OC)c(-c3nc4c([nH]3)CN(C)CC4)c2)n1` [Compound 79] was 1 to 10 µM. On to `CNc1cc(C)nc(Nc2ccc(OC)c(-n3cc(C)c4c3CCN(C)C4)c2)n1` [Compound 81], for which the IC50 was 1 to 10 µM. The value for `CNc1cc(C)nc(Nc2ccc(OC)c(-n3cc4c(n3)CCN(C3CC3)C4)c2)n1` [Compound 82] was 0.1 to 1 µM; that for `COc1ncc(Nc2nc(C)cc(NCC3COC3)n2)cc1-n1cc(CN(C)C)nn1` [Compound 86] was > 10 µM; that for `CNC(=O)CCNc1cc(C)nc(Nc2ccc(OC)c(-n3cc4c(n3)CCN(C)C4)c2)n1` [Compound 87] was 0.1 to 1 µM. On to `CNC(=O)N1CC(CNc2cc(C)nc(Nc3ccc(OC)c(-n4cc5c(n4)CCN(C)C5)c3)n2)C1` [Compound 88], for which the IC50 is 0.1 to 1 µM.

Turning to `CNc1cc(C)nc(Nc2ccc(OC)c(-c3cc4cnccn4n3)c2)n1` [Compound 93], the half-inhibitory concentration (IC50) is > 10 µM. For the compound `CNc1cc(C)nc(Nc2ccc(OC)c(-n3cc(C)c(CNC(C)=O)n3)c2)n1` [Compound 94], the IC50 was > 10 µM. Regarding `CNc1cc(C)nc(Nc2ccc(OC)c(-n3ccc(CNC(C)=O)n3)c2)n1` [Compound 95], the half-inhibitory concentration (IC50) was > 10 µM. For `CNc1cc(C)nc(Nc2ccc(OC)c(-n3ccc(CN(C)C(C)=O)n3)c2)n1` [Compound 96], the 50% inhibitory concentration (IC50) is > 10 µM. The value for `CNc1cc(C)nc(Nc2ccc(OC)c(-n3cc4c(C)nccc4n3)c2)n1` [Compound 99] was 1 to 10 µM; that for `CNc1cc(C)nc(Nc2ccc(OC)c(-n3cc4c(OC)nccc4n3)c2)n1` [Compound 100] was > 10 µM. `CNc1cc(C)nc(Nc2ccc(OC)c(-n3cc(C)c(CN(C)C)n3)c2)n1` [Compound 102]: the IC50 was 1 to 10 µM.

Regarding `CNC(=O)c1cn(-c2cc(Nc3nc(C)cc(NC)n3)ccc2OC)nc1C` [Compound 103], the IC50 was > 10 µM.

For `CNC(=O)c1cnn(-c2cc(Nc3nc(C)cc(NC)n3)ccc2OC)c1` [Compound 104], the half-maximal inhibitory concentration (IC50) was > 10 µM. The value for `CNC(=O)c1c(C)nn(-c2cc(Nc3nc(C)cc(NC)n3)ccc2OC)c1C` [Compound 105] was > 10 µM; that for `CNCc1c(C)nn(-c2cc(Nc3nc(C)cc(NC)n3)ccc2OC)c1C` [Compound 106] was > 10 µM; that for `CNc1cc(C)nc(Nc2ccc(OC)c(-n3cc(CN(C)C)cn3)c2)n1` [Compound 109, N2-(3-(4-((dimethylamino)methyl)-1H-pyrazol-1-yl)-4-methoxyphenyl)-N4,6-dimethylpyrimidine-2,4-diamine] was < 0.1 µM. To `CNc1cc(C)nc(Nc2ccc(OC)c(-n3ncc4c3CCNC4)c2)n1` [Compound 113, N2-(4-methoxy-3-(4,5,6,7-tetrahydro-1H-pyrazolo[4,3-c]pyridin-1-yl)phenyl)-N4,6-dimethylpyrimidine-2,4-diamine] belongs < 0.1 µM; to `CNc1cc(C2CCOCC2)c2cc(OC)c(-n3cc(CN(C)C)nn3)cc2n1` [Compound 116], 1 to 10 µM; to `CNC(=O)c1cn(-c2cc(Nc3nc(C)cc(NC)n3)ccc2OC)nn1` [Compound 117], > 10 µM.

Turning to `CNc1cc(C)nc(Nc2ccc(OC)c(-n3ncc4ncccc43)c2)n1` [Compound 119], the IC50 was > 10 µM. With `CNc1cc(C)nc(Nc2ccc(OC)c(-n3cc(CN4CCC4)nn3)c2)n1` [Compound 121], the 50% inhibitory concentration (IC50) was in the range of 0.1 to 1 µM. With `CNCc1cn(-c2cc3nc(NC)cc(C)c3cc2OC)nn1` [Compound 122], the half-maximal inhibitory concentration (IC50) was 1 to 10 µM. Consider `CNc1cc(C)c2cc(OC)c(-n3cc(C4CCCN4)nn3)cc2n1` (stereo not shown) [Compound 125], for which the half-maximal inhibitory concentration (IC50) was 0.1 to 1 µM. For `CNC(=O)c1nn(-c2cc(Nc3nc(C)cc(NC)n3)ccc2OC)cc1C` [Compound 134], the IC50 was > 10 µM. Take `CNc1cc(C)nc(Nc2ccc(OC)c(-n3cc(C4CCCN4C)nn3)c2)n1` (stereo not shown) [Compound 136]: the IC50 lay in the range of 0.1 to 1 µM. To `CNc1cc(C)nc(Nc2ccc(OC)c(-n3cc(C4CCCN4)nn3)c2)n1` (stereo not shown) [Compound 137, N2-(4-methoxy-3-(4-(pyrrolidin-2-yl)-1H-1,2,3-triazol-1-yl)phenyl)-N4,6-dimethylpyrimidine-2,4-diamine] belongs < 0.1 µM. For the compound `CNc1cc(C)nc(Nc2ccc(OC)c(-n3nnc(C)c3CN(C)C)c2)n1` [Compound 138], the IC50 was > 10 µM. Turning to `CNc1cc(C)nc(Nc2ccc(OC)c(-n3nnc(CN(C)C)c3C)c2)n1` [Compound 139], the IC50 is > 10 µM. Take `CCN(CC)Cc1cn(-c2cc(Nc3nc(C)cc(NC)n3)ccc2OC)nn1` [Compound 143]: the 50% inhibitory concentration (IC50) fell in the range of 0.1 to 1 µM. On to `CNc1cc(C)nc(Nc2ccc(OC)c(-n3cc4cc(C)ccc4n3)c2)n1` [Compound 144], for which the concentration for half-maximal inhibition (IC50) lay in the range of 1 to 10 µM.

`CNc1cc(C)nc(Nc2ccc(OC)c(-n3cc4cc(C5CC5)ccc4n3)c2)n1` [Compound 145]: the concentration for half-maximal inhibition (IC50) is > 10 µM.
